Values quoted from earlier work, collected in PubChem BioAssay AID1259409 (Chemical Carcinogenesis Research Information System (CCRIS), 2018).

System: rodent chemically induced tumor inhibition, incidence and multiplicity
Assay: CCRIS tumor inhibitor studies
Details: Route [Inhibitor]: ORAL, Promoter: NONE USED

Q: With `COc1ccc([C@@H]2CC(=O)c3c(O)cc(O[C@@H]4O[C@H](CO[C@@H]5O[C@@H](C)[C@H](O)[C@@H](O)[C@H]5O)[C@@H](O)[C@H](O)[C@H]4O)cc3O2)cc1O` as the compound, how does the “tumour outcome (control, treated, inhibition, significance)” value (Carcinogen: AZOXYMETHANE, 25843-45-2, Dose [Inhibitor]: 0, 1000 PPM IN DIET FOR 28 WK BEGINNING 1 WK POST CARCINOGEN TREATMENT (STUDY DURATION: 32 WK), Species: RAT, Strain/Sex: F344/MALE, Target Tissue: Type of Lesion: SMALL INTESTINE: TUMOR, Dose [Carcinogen]: 15 MG/KG BW 1/WK FOR 3 WK) read?
A: 5/17 (29%), 0/20 (0%), 100%, p<0.05

Q: What about the “tumour outcome (control, treated, inhibition, significance)” value (Carcinogen: N-BUTYL-N-(4-HYDROXYBUTYL)NITROSAMINE, 3817-11-6, Dose [Inhibitor]: 0, 1000 PPM IN DIET FOR 8 WK BEGINNING 1 WK PRIOR TO CARCINOGEN TREATMENT (STUDY DURATION: 32 WK), Species: MOUSE, Strain/Sex: ICR/MALE, Target Tissue: Type of Lesion: URINARY BLADDER: PAPILLOMA, Dose [Carcinogen]: 500 PPM IN DRINKING WATER FOR 6 WK) of the same compound?
A: 5/26 (19%), 1/23 (4%), 79%, not significant

Q: What about the “tumour outcome (control, treated, inhibition, significance)” value (Carcinogen: N-BUTYL-N-(4-HYDROXYBUTYL)NITROSAMINE, 3817-11-6, Dose [Inhibitor]: 0, 1000 PPM IN DIET FOR 24 WK BEGINNING 1 WK POST CARCINOGEN TREATMENT (STUDY DURATION: 32 WK), Species: MOUSE, Strain/Sex: ICR/MALE, Target Tissue: Type of Lesion: URINARY BLADDER: PAPILLOMA, Dose [Carcinogen]: 500 PPM IN DRINKING WATER FOR 6 WK) of the same compound?
A: 5/26 (19%), 3/25 (12%), 37%, not significant

Q: What about the “tumour outcome (control, treated, inhibition, significance)” value (Carcinogen: N-BUTYL-N-(4-HYDROXYBUTYL)NITROSAMINE, 3817-11-6, Dose [Inhibitor]: 0, 1000 PPM IN DIET FOR 24 WK BEGINNING 1 WK POST CARCINOGEN TREATMENT (STUDY DURATION: 32 WK), Species: MOUSE, Strain/Sex: ICR/MALE, Target Tissue: Type of Lesion: URINARY BLADDER: TRANSITIONAL CELL CARCINOMA, Dose [Carcinogen]: 500 PPM IN DRINKING WATER FOR 6 WK) of the same compound?
A: 16/26 (62%), 5/25 (20%), 68%, p<0.005

Q: What about the “tumour outcome (control, treated, inhibition, significance)” value (Carcinogen: N-BUTYL-N-(4-HYDROXYBUTYL)NITROSAMINE, 3817-11-6, Dose [Inhibitor]: O, 1000 PPM IN DIET FOR 8 WK BEGINNING 1 WK PRIOR TO CARCINOGEN TREATMENT (STUDY DURATION: 32 WK), Species: MOUSE, Strain/Sex: ICR/MALE, Target Tissue: Type of Lesion: URINARY BLADDER: TRANSITIONAL CELL CARCINOMA, Dose [Carcinogen]: 500 PPM IN DRINKING WATER FOR 6 WK) of the same compound?
A: 16/26 (62%), 3/23 (13%), 79%, p<0.001

Q: And the “tumour outcome (control, treated, inhibition, significance)” value (Carcinogen: N-METHYL-N-AMYLNITROSAMINE, 13256-07-0, Dose [Inhibitor]: 0, 1000 PPM IN DIET FOR 7 WK BEGINNING 1 WK POST CARCINOGEN TREATMENT (STUDY DURATION: 20 WK), Species: RAT, Strain/Sex: WISTAR/MALE, Target Tissue: Type of Lesion: ESOPHAGUS: SQUAMOUS CELL CARCINOMA, Dose [Carcinogen]: 12.5 MG/KG BW 1/WK FOR 12 WK)?
A: 75%, 56%, 25%, not significant

Q: And the “tumour outcome (control, treated, inhibition, significance)” value (Carcinogen: N-METHYL-N-AMYLNITROSAMINE, 13256-07-0, Dose [Inhibitor]: 0, 1000 PPM IN DIET FOR 7 WK BEGINNING 1 WK POST CARCINOGEN TREATMENT (STUDY DURATION: 20 WK), Species: RAT, Strain/Sex: WISTAR/MALE, Target Tissue: Type of Lesion: ESOPHAGUS: SQUAMOUS CELL PAPILLOMA, Dose [Carcinogen]: 12.5 MG/KG BW 1/WK FOR 12 WK)?
A: 100%, 100%, 0%, not significant

Q: What about the “tumour outcome (control, treated, inhibition, significance)” value (Carcinogen: N-METHYL-N-AMYLNITROSAMINE, 13256-07-0, Dose [Inhibitor]: 0, 1000 PPM IN DIET FOR 7 WK BEGINNING 1 WK POST CARCINOGEN TREATMENT (STUDY DURATION: 20 WK), Species: RAT, Strain/Sex: WISTAR/MALE, Target Tissue: Type of Lesion: TONGUE: SQUAMOUS CELL CARCINOMA, Dose [Carcinogen]: 12.5 MG/KG BW 1/WK FOR 12 WK) of the same compound?
A: 17%, 16%, 6%, not significant

Q: And the “tumour outcome (control, treated, inhibition, significance)” value (Carcinogen: N-METHYL-N-AMYLNITROSAMINE, 13256-07-0, Dose [Inhibitor]: 0, 1000 PPM IN DIET FOR 7 WK BEGINNING 1 WK POST CARCINOGEN TREATMENT (STUDY DURATION: 20 WK), Species: RAT, Strain/Sex: WISTAR/MALE, Target Tissue: Type of Lesion: TONGUE: SQUAMOUS CELL PAPILLOMA, Dose [Carcinogen]: 12.5 MG/KG BW 1/WK FOR 12 WK)?
A: 33%, 16%, 52%, not calculated

Q: And the “tumour outcome (control, treated, inhibition, significance)” value (Carcinogen: N-METHYL-N-AMYLNITROSAMINE, 13256-07-0, Dose [Inhibitor]: 0, 1000 PPM IN DIET FOR 13 WK BEGINNING 1 WK PRIOR TO CARCINOGEN TREATMENT (STUDY DURATION: 20 WK), Species: RAT, Strain/Sex: WISTAR/MALE, Target Tissue: Type of Lesion: ESOPHAGUS: SQUAMOUS CELL CARCINOMA, Dose [Carcinogen]: 12.5 MG/KG BW 1/WK FOR 12 WK)?
A: 75%, 45%, 40%, not significant

Q: And the “tumour outcome (control, treated, inhibition, significance)” value (Carcinogen: N-METHYL-N-AMYLNITROSAMINE, 13256-07-0, Dose [Inhibitor]: 0, 1000 PPM IN DIET FOR 13 WK BEGINNING 1 WK PRIOR TO CARCINOGEN TREATMENT (STUDY DURATION: 20 WK), Species: RAT, Strain/Sex: WISTAR/MALE, Target Tissue: Type of Lesion: ESOPHAGUS: SQUAMOUS CELL PAPILLOMA, Dose [Carcinogen]: 12.5 MG/KG BW 1/WK FOR 12 WK)?
A: 100%, 100%, 0%, not significant

Q: And the “tumour outcome (control, treated, inhibition, significance)” value (Carcinogen: N-METHYL-N-AMYLNITROSAMINE, 13256-07-0, Dose [Inhibitor]: 0, 1000 PPM IN DIET FOR 13 WK BEGINNING 1 WK PRIOR TO CARCINOGEN TREATMENT (STUDY DURATION: 20 WK), Species: RAT, Strain/Sex: WISTAR/MALE, Target Tissue: Type of Lesion: TONGUE: SQUAMOUS CELL CARCINOMA, Dose [Carcinogen]: 12.5 MG/KG BW 1/WK FOR 12 WK)?
A: 17%, 0%, 100%, not calculated

Q: And the “tumour outcome (control, treated, inhibition, significance)” value (Carcinogen: N-METHYL-N-AMYLNITROSAMINE, 13256-07-0, Dose [Inhibitor]: 0, 1000 PPM IN DIET FOR 13 WK BEGINNING 1 WK PRIOR TO CARCINOGEN TREATMENT (STUDY DURATION: 20 WK), Species: RAT, Strain/Sex: WISTAR/MALE, Target Tissue: Type of Lesion: TONGUE: SQUAMOUS CELL PAPILLOMA, Dose [Carcinogen]: 12.5 MG/KG BW 1/WK FOR 12 WK)?
A: 33%, 10%, 70%, not significant
